Holding throughout (assay): DTP human tumour cell line panel, 48 h
The test system of test [1] is 786-0.
The test system of test [2] is A498.
Test [3] has as its system EKVX.
Test [4] concerns HCC 2998.
Test [5] concerns HT-29.
Test [6] relates to Hs-578T.
The subject of test [7] is IGROV-1.
In test [8] the test system is MCF7.
Test [9] relates to MDA-MB-231.
The test system of test [10] is NCI-H226.
Test [11] concerns NCI/ADR-RES.
The subject of test [12] is OVCAR-5.
For test [13], the system named is RPMI-8226.
Test [14] concerns SK-MEL-2.
Test [15] concerns SK-MEL-5.
The subject of test [16] is UACC-257.
Test [17] concerns ACHN.
In test [18] the test system is HCT-15.
The test system of test [19] is SNB-19.

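Cells were grown in 96-well plates and exposed to each compound for 48 hours at five concentrations; endpoints were interpolated linearly between bracketing concentrations, or set to the highest concentration if not reached. At the GI50, growth is halved.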 Active and inactive are the calls of the source. No stated cut-off is given here; in the data, active = GI50 up to about 1.1 µM and inactive = higher.

On to `CSCCC(NC(=O)C(Cc1c[nH]c2ccccc12)NC(=O)CCNC(=O)OC(C)(C)C)C(=O)NC(CC(=O)O)C(=O)NC(Cc1ccccc1)C(N)=O` (centres undefined), for which the GI50 in test [1], in test [2], in test [3], in test [4], in [5] and in [6] was > 50 µM (inactive) each time. For the same molecule, the GI50 in [7], in test [8], in test [9], in [10], in [11] and in test [12] was > 50 µM (inactive) in each case. Further, the GI50 in [13], in [14], in [15] and in test [16] was > 50 µM (inactive) throughout.
For `c1cc(-c2csc(-c3ccsc3)c2)cs1`, the GI50 in test [1] is > 100 µM (inactive); in test [2] it was > 100 µM (inactive); in test [17] it was > 100 µM (inactive); in test [3] it was > 100 µM (inactive); in [4] it was 42.5 µM (inactive); in test [18] it was above 100 µM. Further, the GI50 in [5] was > 100 µM (inactive); in test [6], > 100 µM (inactive); in test [7], > 100 µM (inactive); in test [8], 20.3 µM (inactive); in [9], > 100 µM (inactive); in [10], 13.5 µM (inactive). Further, the GI50 was > 100 µM (inactive) in test [11]; 88.9 µM (inactive) in test [12]; > 100 µM (inactive) in test [13]; > 100 µM (inactive) in test [15]; 53.1 µM (inactive) in test [19]; > 100 µM (inactive) in test [16].
For the molecule `CC/C=C\C=C/C(=O)N/C=C/CCC`, the GI50 in test [1] was > 100 µM (inactive); in test [2] it was 23.5 µM (inactive); in test [17], > 100 µM (inactive); in test [3] it was > 100 µM (inactive); in test [4] it was 23.3 µM (inactive); in test [18], above 100 µM. Besides, the GI50 is 78.3 µM (inactive) in test [5]; > 100 µM (inactive) in test [6]; > 100 µM (inactive) in test [7]; 78.3 µM (inactive) in [8]; > 100 µM (inactive) in test [9]; > 100 µM (inactive) in test [10]. The GI50 is > 100 µM (inactive) in test [11]; > 100 µM (inactive) in [12]; 40.2 µM (inactive) in [13]; > 100 µM (inactive) in [14]; > 100 µM (inactive) in test [19]; > 100 µM (inactive) in test [16].
Consider `Nc1c2ccccc2nc2ccc3c(=O)cc(-c4ccccc4)oc3c12`, for which the GI50 in test [1] was 0.436 µM (active); in test [17] it was 1.12 µM (active); in test [3], 1.34 µM (inactive); in test [4], 0.492 µM (active); in [18] it was 1.02 µM; in [5], 0.465 µM (active). For the same molecule, the GI50 in test [6] was 1.9 µM (inactive); in test [7] it was 1.12 µM (inactive); in test [8], 0.649 µM (active); in [9], 1.14 µM (inactive); in [10], 1.31 µM (inactive); in test [11], 1.35 µM (inactive). For the same molecule, the GI50 was 1.5 µM (inactive) in [12]; 0.473 µM (active) in test [13]; 1.96 µM (inactive) in [14]; 1.52 µM (inactive) in test [15]; 1.26 µM (inactive) in test [19]; 1.75 µM (inactive) in test [16].
For `COC(=O)CSSCc1ccc([N+](=O)[O-])cc1`, the GI50 in test [1] is 19 µM (inactive); in [2] it was 21.6 µM (inactive); in [17], 16.3 µM (inactive); in [3], 28.2 µM (inactive); in test [4], 21.4 µM (inactive); in test [18] it was 16.7 µM. Moreover, the GI50 in test [5] was 19.5 µM (inactive); in [6] it was 21.2 µM (inactive); in test [7], 3.08 µM (inactive); in [8], 7.33 µM (inactive); in test [9] it was 19.1 µM (inactive); in [11], 20.9 µM (inactive). Besides, the GI50 in [12] was 19.4 µM (inactive); in [13], 18 µM (inactive); in test [14] it was 18.1 µM (inactive); in [15], 17.7 µM (inactive); in test [19], 26.8 µM (inactive); in [16], 26.5 µM (inactive).
Turning to `O=C1C(Sc2ccc3ccccc3c2)=C(Sc2ccc3ccccc3c2)C(=O)c2ccccc21`, the GI50 in [1] is 12.7 µM (inactive); in [2], 14.8 µM (inactive); in test [17] it was 4.55 µM (inactive); in test [3] it was 10.5 µM (inactive); in test [4], 5.38 µM (inactive); in test [18], 9.06 µM. Further, the GI50 in test [5] was 15.6 µM (inactive); in test [6] it was 8.57 µM (inactive); in test [8], 11.2 µM (inactive); in test [9], 4.59 µM (inactive); in test [10] it was 13.9 µM (inactive); in test [11], 13.2 µM (inactive). In addition, the GI50 in [12] is 11.3 µM (inactive); in test [14], 5.53 µM (inactive); in test [15] it was 2.81 µM (inactive); in [19], 8.09 µM (inactive); in test [16] it was 3.57 µM (inactive).
For the molecule `COC1CC(OC2C(C)OC(OC3C(C)OC(OC4C(C)OC(O[C@H]5CC[C@@]6(C)C(=CC[C@]7(O)[C@@H]6C[C@@H](O)[C@@]6(C)[C@]7(O)CC[C@@]6(O)C(C)=O)C5)CC4OC)CC3OC)CC2OC)OC(C)C1O` (some centres undefined), the GI50 in [1] is > 12.5 µM (inactive); in test [17], > 12.5 µM (inactive); in [3], > 12.5 µM (inactive); in test [4], > 12.5 µM (inactive); in [18], above 12.5 µM; in test [5], > 12.5 µM (inactive). The GI50 in test [6], in [7], in test [8], in test [9], in test [10] and in [11] was > 12.5 µM (inactive) in each case. In addition, the GI50 in [12], in [13], in test [14], in [15], in test [19] and in test [16] was > 12.5 µM (inactive) in each case.
On to `Cc1nc2c(sc(=S)n2-c2ccccc2)c2nc3ncccc3n12`, for which the GI50 in [1] is 35.2 µM (inactive); in [2], > 100 µM (inactive); in test [17], > 100 µM (inactive); in test [3], > 100 µM (inactive); in test [4], > 100 µM (inactive); in test [18] it was above 100 µM. Besides, the GI50 in test [5] was > 100 µM (inactive); in test [6], > 100 µM (inactive); in test [7], > 100 µM (inactive); in test [8] it was > 100 µM (inactive); in [9], 45.1 µM (inactive); in [11], > 100 µM (inactive). Further, the GI50 in [12] is > 100 µM (inactive); in test [13] it was > 100 µM (inactive); in [14], 65.8 µM (inactive); in test [15], > 100 µM (inactive); in test [19] it was 54.5 µM (inactive); in test [16], > 100 µM (inactive).
For `COC(=O)NC1C(C)OC(OC2C/C=C(/C)C3C=CC4C(OC5CC(OC6CC(OC7CC(O)C(O)C(C)O7)C(OC7CC(O)C(OC)C(C)O7)C(C)O6)C(O)C(C)O5)C(C)CC(C)C4C3(C)C(=O)C3=C(O)C4(CC(C)C(CO)=CC4/C=C\2C)OC3=O)CC1(C)[N+](=O)[O-]` (centres undefined), the GI50 was 2.44 µM (inactive) in test [1]; 25.6 µM (inactive) in test [2]; 11.6 µM (inactive) in test [17]; 14.4 µM (inactive) in test [3]; 3.49 µM (inactive) in test [4]; 15.6 µM in test [18]. The GI50 in test [5] is 7.83 µM (inactive); in [6], 6.85 µM (inactive); in test [7] it was 10.4 µM (inactive); in test [8] it was 11.7 µM (inactive); in test [9], 12 µM (inactive); in test [11], 38.7 µM (inactive). The GI50 was 16.9 µM (inactive) in [12]; 1.6 µM (inactive) in [13]; 11.6 µM (inactive) in test [14]; 5.22 µM (inactive) in [15]; 21.2 µM (inactive) in [19]; 9.89 µM (inactive) in test [16].
For the molecule `CSC(SC)=C(C#N)C(=O)Nc1cccc(Cl)c1`, the GI50 in test [1] is 33.8 µM (inactive); in test [2] it was 61.1 µM (inactive); in test [17], 75.2 µM (inactive); in [3], > 100 µM (inactive); in [4], 75.5 µM (inactive); in [18] it was 38.4 µM. Moreover, the GI50 in [5] is 46.7 µM (inactive); in test [6] it was > 100 µM (inactive); in [7] it was 69.2 µM (inactive); in test [8], 34.8 µM (inactive); in [9], > 100 µM (inactive); in [10] it was > 100 µM (inactive). Moreover, the GI50 is 32.5 µM (inactive) in [11]; 98.2 µM (inactive) in test [12]; > 100 µM (inactive) in [14]; 10.3 µM (inactive) in [15]; > 100 µM (inactive) in test [19]; > 100 µM (inactive) in test [16].
As to `Cc1ccn2c(=O)cc(CN3CCOCC3)nc2c1`, the GI50 in test [1] was > 100 µM (inactive); in test [17] it was > 100 µM (inactive); in test [3] it was > 100 µM (inactive); in [4], > 100 µM (inactive); in test [18], above 100 µM; in [5], > 100 µM (inactive). The GI50 in test [6], in [7], in [8], in test [9], in test [10] and in test [11] was > 100 µM (inactive) throughout. Also, the GI50 in test [12], in [13], in test [14], in test [19] and in test [16] was > 100 µM (inactive) in each case.

What is called GI50 is the concentration giving 50% growth inhibition.

The values above are taken from ChEMBL document CHEMBL1201862, “PubChem BioAssay data set” (2004).
